Test results from paper PMC10575921 (Nature Communications, 2023).
≈ marks a conversion by molar mass, not a printed value. Where “and” joins values, the source holds several entries; their conditions need not be identical. Equal entries are not always repeated. Where two headings read alike, the source gives them in different places.

Key:
[1] = molecular target: SARS-CoV-2 3CL^pro (Severe acute respiratory syndrome coronavirus 2, UniProt P0DTD1); test: biochemical
[2] = test system: SARS-CoV-2 Delta strain; test: microbe, parasite or virus in culture; assay type: cell-based
[3] = in vitro; conditions: African green monkey
[4] = test system: 413 human kinases
[5] = test system: SARS-CoV-2 WIV04 strain; test: microbe, parasite or virus in culture; conditions: Severe acute respiratory syndrome coronavirus 2, Vero C1008, read-out: EC50^CP
[6] = in vivo; conditions: both, cynomolgus monkey
[7] = male, C57BL/6J, in vivo
[8] = male, C57BL/6J, mouse, in vivo
[9] = test system: CYP3A4/5; test: in vitro; conditions: human, microsomes
[10] = in vivo; conditions: both, cynomolgus monkey; remark: listed apart in the source
[11] = both, cynomolgus monkey, in vivo
[12] = test system: human peripheral blood mononuclear cells (PBMCs); test: cells; conditions: PBMC
[13] = in vivo; conditions: both, SD, rat
[14] = in vitro; conditions: monkey, plasma
[15] = in vivo; conditions: both, Sprague-Dawley, rat
[16] = test system: Chinese hamster lung (CHL) cells
[17] = both, cynomolgus monkey, in vivo; remark: listed apart in the source
[18] = test system: CYP enzymes (all tested); test: in vitro; conditions: human
[19] = test system: CYP3A
[20] = in vivo; conditions: male, C57BL/6J, mouse, po
[21] = in vitro; conditions: rat, plasma
[22] = test system: SARS-CoV-2 Omicron strain; test: microbe, parasite or virus in culture
[23] = test system: human peripheral blood mononuclear cells (PBMCs)
[24] = test system: human primary hepatocytes; conditions: human
[25] = in vitro; conditions: mouse, plasma
[26] = test system: SARS-CoV-2 Omicron strain
[27] = both, SD, rat, in vivo
[28] = test system: human primary hepatocytes; test: cells; conditions: Hepatocyte
[29] = concentration 500.00 nM, read-out: inhibition ratio (%)
[30] = Severe acute respiratory syndrome coronavirus 2, Vero C1008, read-out: EC50 (nM) Mean
[31] = 500.00 nM, read-out: inhibition ratio (%)
[32] = 15.63 nM, read-out: inhibition ratio (%)
[33] = 31.25 nM, read-out: inhibition ratio (%)

In the case of `CC(C)(C)NC(=O)N[C@H](C(=O)N1C[C@@H](Sc2ccccc2)C[C@H]1C(=O)N[C@H](C#N)C[C@@H]1CCNC1=O)C(C)(C)C` [compound 6], the IC50 ([1]; IC50) is reported as 7210 nM, the IC50 ([1]; IC50 (nM)) is reported as 6060 nM and 8400 nM and 7190 nM and the inhibition at 3.125 µM ([1]; concentration 3125.00 nM, read-out: inhibition ratio (%)) is reported as 22.4%. For the same molecule, the inhibition at 50 µM ([1]; concentration 50000.00 nM, read-out: inhibition ratio (%)) was 90.5%, the inhibition at 100 µM ([1]; concentration 100000.00 nM, read-out: inhibition ratio (%)) was 97.7% and the inhibition at 25 µM ([1]; concentration […], read-out: inhibition ratio (%)) was 81.8%.

Molecule `CC(C)(C)NC(=O)N[C@H](C(=O)N1CC2(C[C@H]1C(=O)N[C@H](C#N)C[C@@H]1CCNC1=O)SCCS2)C(C)(C)C` [compound 7] has an inhibition at 0.01563 µM ([1]; concentration 15.63 nM, read-out: inhibition ratio (%)) of 28.1%, an inhibition at 0.5 µM [1, 29] of 97.8% and an EC50 [2, 30] of 30000 nM. The EC50 ([2]; read-out: EC50^CP) was 220 nM and the CC50 [3] was over 500000 nM.

In the case of `CC(C)(C)NC(=O)N[C@H](C(=O)N1C[C@@H]2CCC[C@@H]2[C@H]1C(=O)N[C@H](C#N)C[C@@H]1CCNC1=O)C(C)(C)C` [compound 8], the IC50 ([1]; IC50) is reported as 50 nM, the IC50 ([1]; IC50 (nM)) is reported as 49.2 nM and 55.8 nM and 45.8 nM and the inhibition at 0.03125 µM ([1]; concentration 31.25 nM, read-out: inhibition ratio (%)) is reported as 37.9%. It also gave an inhibition at 0.5 µM [1, 29] of 93.2%.

With `CC(C)(C)[C@H](NC(=O)C(F)(F)F)C(=O)N1CC2(C[C@H]1C(=O)N[C@H](C#N)C[C@@H]1CCNC1=O)SCCS2` [compound 9, simnotrelvir] the “inhibition of 413 human kinases” value [4] was “no significant inhibitory activities”, the EC50 [5] was 26 nM and the Cmax ([6]; 600 mg/kg/day) was 26400 ng/mL. The NOAEL ([6]; po) was 600 mg/kg/day, the “exposure in the mouse brains” value [7] was “moderate simnotrelvir exposure” and the “time brain concentration covers EC50^total” value ([7]; mouse) was over 8 h. For the same molecule, the “time brain concentration covers EC90^total” value ([7]; mouse) was “more than 2 h”, the “time plasma concentration maintained above EC90^total” value [8] was 24 h and the IC50 [9] was 30000 nM. The activity at 0.1 µM ([9]; […]) was 104%, the activity at 1 µM ([9]; […]) was 101% and the activity at 3.33 µM ([9]; […]) was 95.4%. It also gave an activity at 10 µM ([9]; […], 10 μM) of 73.9%, an activity at 33.3 µM ([9]; […], 33.3 μM) of 46.6% and an activity at 100 µM ([9]; […], 100 μM) of 21.8%. For the same molecule, the bioavailability ([10]; 5 mg/kg) was 41.9%, the half-life ([10]; 5 mg/kg) was 1.7 h and the Vd ([10]; iv, 5 mg/kg) was 1.5 L/kg. The clearance ([10]; iv, 5 mg/kg) was 20.7 mL/min/kg, the AUC(0-inf) ([10]; po) was 17200 ng·h/mL and the AUC(0-t) ([10]; po) was 17000 ng·h/mL. It also gave a Cmax ([10]; po) of 2440 ng/mL, a half-life ([10]; po) of 2.38 h and an AUC(0-inf) ([10]; po, 5 mg/kg) of 1790 ng·h/mL. For the same molecule, the AUC(0-t) ([10]; po, 5 mg/kg) was 1660 ng·h/mL, the Cmax ([10]; po, 5 mg/kg) was 625 ng/mL and the half-life ([10]; po, 5 mg/kg) was 5.63 h. For the same molecule, the “increase of AUC0-∞ by ritonavir” value [11] was 9.6 fold, the “increase of Cmax by ritonavir” value [11] was 3.9 fold and the IC50 [12] was over 150000 nM. The Cmax ([13]; 1000 mg/kg/day) was 17000 ng/mL, the NOAEL ([13]; po) was 1000 mg/kg/day and the fraction unbound [14] was 0.193. For the same molecule, the bioavailability ([15]; 15 mg/kg) was 35.3%, the half-life ([15]; 15 mg/kg) was 0.45 h and the Vd ([15]; iv, 15 mg/kg) was 1.36 L/kg. For the same molecule, the clearance ([15]; iv, 15 mg/kg) was 59.3 mL/min/kg, the AUC(0-inf) ([15]; po) was 9000 ng·h/mL and the AUC(0-t) ([15]; po) was 8920 ng·h/mL. It also gave a Cmax ([15]; po) of 2760 ng/mL, a half-life ([15]; po) of 1.99 h and an AUC(0-inf) ([15]; po, 15 mg/kg) of 1730 ng·h/mL. It also gave an AUC(0-t) ([15]; po, 15 mg/kg) of 1700 ng·h/mL, a Cmax ([15]; po, 15 mg/kg) of 1580 ng/mL and a half-life ([15]; po, 15 mg/kg) of 1.29 h. The “chromosome aberration test (CA) result” value [16] was “negative”, the “tolerability in two-week toxicity study” value [17] was “well tolerated” and the IC50 [18] was at least 30000 nM. The “calculated metabolic contribution of CYP3A” value [19] was 87%, the Cmax [20] was 49300 ng/mL and the Cmax ([20]; 50 mg/kg) was 18500 ng/mL. It also gave a fraction unbound [21] of 0.334, an EC50 ([22]; Severe acute respiratory syndrome coronavirus 2, Vero C1008) of 38.7 nM and an EC50 ([22]; Severe acute respiratory syndrome coronavirus 2, Vero C1008, read-out: EC50^CP) of 43 nM. For the same molecule, the “IC50 or CC50: PBMC” value [23] was over 150000 nM, the “toxicity to human PBMCs” value [23] was “no toxicity was observed” and the “IC50 or CC50: PHHs” value [24] was over 150000 nM. For the same molecule, the “toxicity to human hepatocytes” value [24] was “no toxicity was observed”, the fraction unbound [25] was 0.217 and the EC50 [26] was 44.9 nM. The “tolerability in two-week toxicity study” value [27] was “well tolerated”, the “EC90^total” value [2] was 0.906 µg/mL (≈ 1.65 µM) and the EC90 ([2]; Severe acute respiratory syndrome coronavirus 2, Vero C1008, read-out: EC90^total) was 0.523 µg/mL. The EC50 ([2]; read-out: EC50^CP) was 34 nM, the EC90 ([2]; read-out: EC90 (nM), single independent experiment) was 290 nM and 382 nM and the IC50 [28] was over 150000 nM.

In the case of `CC(C)(C)[C@H](NC(=O)C1(F)CC1)C(=O)N1CC2(C[C@H]1C(=O)N[C@H](C#N)C[C@@H]1CCNC1=O)SCCS2` [compound 10], the inhibition at 0.5 µM [1, 31] is reported as 94%, the EC50 [2, 30] is reported as 1100 nM and the CC50 [3] is reported as over 500000 nM.

`CC(C)(C)[C@H](NS(C)(=O)=O)C(=O)N1CC2(C[C@H]1C(=O)N[C@H](C#N)C[C@@H]1CCNC1=O)SCCS2` [compound 11] gave an inhibition at 0.01563 µM [1, 32] of 54%, an inhibition at 0.03125 µM [1, 33] of 73.9% and an inhibition at 0.5 µM [1, 31] of 94.6%. For the same molecule, the EC50 [2, 30] was 10400 nM and the CC50 [3] was over 500000 nM.

For `CC(C)(C)[C@H](NS(=O)(=O)C1CC1)C(=O)N1CC2(C[C@H]1C(=O)N[C@H](C#N)C[C@@H]1CCNC1=O)SCCS2` [compound 12], the inhibition at 0.01563 µM [1, 32] was 72.8%, the inhibition at 0.03125 µM [1, 33] was 86.6% and the inhibition at 0.5 µM [1, 31] was 97.9%. It also gave an EC50 [2, 30] of 10700 nM and a CC50 [3] of over 500000 nM.

For `CC(C)(C)[C@H](NC(=O)C(F)(F)F)C(=O)N1C[C@H]2[C@@H]([C@H]1C(=O)N[C@H](C#N)C[C@@H]1CCNC1=O)C2(C)C` [nirmatrelvir, reference compound], the EC50 ([2]; read-out: EC50^CP) was 30 nM.
